Measurements as given in patent publication US7049486B2, “Method of inducing gene expression in plant and the plant treated thereby” (priority 2000, dated 2006).

Legend:
[1] = tested on: GUS reporter gene placed under the control of the operator BARE-3 (repressor BarA); test: GUS reporter induction at low VB concentrations in transiently transformed cultured tobacco cells (Example 7); type: cell-based
Description: Cultured tobacco cells were provided with the characters of the repressor BarA (receptor protein for VB) and operator BARE-3 (one of the target sequences for BarA) constituting a gene expression inducing system with the actinomycete Streptomyces virginiae autogenous regulatory factor VB as the inducer by gene transfer and whether the expression of the GUS reporter gene placed under the control of the operator BARE-3 was induced was examined by administering the inducer VB in low concentrations to thus-obtained transiently transformed cultured tobacco cells.
Like in Example 6, the GUS reporter gene placed under the control of BARE-3 (Example 2, plasmid pCaMV35SD-gus) was further transferred into a cultured tobacco cell transformant clone (Example 3, No. 21 shown in FIG. 1) seemingly indicating relatively high level accumulation of the BarA protein among the clones obtained by transferring the barA gene (Example 1, binary vector pBICaMV35S-barA) into cultured tobacco BY2 cells, for transient transformation of that clone. […]

[2] = tested on: plants; test: Toxicity to plants; conditions: concentration of 10 μM
Description: The actinomycete autogenous regulatory factors have no toxicity to plants.

[3] = target: T1, ArpA (Streptomyces griseus, UniProt Q9ZN78); conditions: A factor/ArpA; read-out: dissociation constant (Kd value); cited from earlier work
T1 sequence (Q9ZN78 1-276): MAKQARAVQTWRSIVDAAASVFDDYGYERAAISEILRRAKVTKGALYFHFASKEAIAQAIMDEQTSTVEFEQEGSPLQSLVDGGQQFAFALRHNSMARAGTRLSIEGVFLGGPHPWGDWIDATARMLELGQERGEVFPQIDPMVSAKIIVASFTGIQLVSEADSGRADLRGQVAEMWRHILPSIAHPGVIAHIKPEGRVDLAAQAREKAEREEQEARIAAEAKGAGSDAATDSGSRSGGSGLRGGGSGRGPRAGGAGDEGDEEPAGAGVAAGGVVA

Molecule	concentration at which gene expression under the control of BARE-3 is induced to a satisfactory extent [1] [nM]	toxicity to plants [2]	Kd [3] [nM]
virginiae butanolide [VB]	100	no toxicity	–
CC(C)CCCCC(=O)C1C(=O)OC[C@H]1CO (stereo partly drawn) [A factor]	–	–	0.7
